Source: patent US8834899B2, “Photodynamic therapy-generated mesothelioma vaccine” (The Trustees of the University of Pennsylvania, priority 2006, dated 2014)

Test system: AB1 murine mesothelioma cells
Experiment: Clonogenic assay after Photofrin PDT
Assay type: cell-based
Settings: for % Cell Kill / Clonogenic Results (colonies) / Clonogenic Results, Averaged numbers: Photofrin 24 hours
Description: Initial tests were conducted in order to explore the possibility of generating inactivated whole tumor cells from PDT. Three variables were manipulated: Photofrin® incubation time, Photofrin® dosage, and light dosage. Since Photofrin® incubation times may determine cellular uptake—either just within the membrane or further into the cytoplasm—the cells were incubated for either 3-hours or 24-hours, followed by a 3-hour incubation in drug-free media. Second, cells were given a Photofrin dose of either 10 μg/mL or 25 μg/mL. Dosages were determined by consulting both past papers and another PDT research laboratory. Lastly, light dosage was varied. The light source was a Laserscope KTP/YAG laser with a 630 nm Dye Module. […] Laser light dosage was measured in fluence or j/cm^2. Light dosages ranged from 0.125 j/cm^2 to 1.0 j/cm^2.
Later in the study, dose-response curves followed by clonogenic assays, were performed in order to determine appropriate PDT light dosages for complete cell killing. In these tests, cells were incubated for 24-hours and exposed to high light dosages ranging from 1.0 j/cm^2 to 3.0 j/cm^2. The clonogenic assay measured cell plating efficiency and proliferation and involved plating cells at very low concentrations. After one week, resultant colonies that had formed were counted and compared against controls that had not been lit.
All three factors were modified with the intent of producing complete cell death. Cells were incubated in 25 μg/mL of Photofrin® for 3 hours and lit with 2.0 j/cm^2 of light at 630 nm. […] A clonogenic assay was performed to explore the dose-response relationship at this level of light, and the results are summarized in Table 2. For the assay, cells were incubated in 25 μg/mL of Photofrin® for 24 hours and lit with 1.0 to 3.0 j/cm^2 of light. […] After this test, PDT vaccines were generated by incubating cells in 25 μg/mL of Photofrin® for 24 hours and lit with 3.0 j/cm^2 of light.

[1] = 250 cells per plate, 1.5 j/cm^2
[2] = 500 cells per plate, 1.0 j/cm^2
[3] = 500 cells per plate, 1.5 j/cm^2
[4] = 500 cells per plate, 2.0 j/cm^2
[5] = 500 cells per plate, 2.0 j/cm^2 (100 mill), lit at high cell concentration
[6] = 500 cells per plate, 2.5 j/cm^2
[7] = 500 cells per plate, 3.0 j/cm^2
[8] = 500 cells per plate, 3.0 j/cm^2 (100 mill), lit at high cell concentration
[9] = 1000 cells per plate, 1.0 j/cm^2
[10] = 1000 cells per plate, 1.5 j/cm^2
[11] = 1000 cells per plate, 2.0 j/cm^2
[12] = 1000 cells per plate, 2.0 j/cm^2 (100 mill), lit at high cell concentration
[13] = 1000 cells per plate, 2.5 j/cm^2
[14] = 1000 cells per plate, 3.0 j/cm^2
[15] = 1000 cells per plate, 3.0 j/cm^2 (100 mill), lit at high cell concentration

## Photofrin
25 μg/mL Photofrin 24 hours, all conditions, light 1.0 to 3.0 j/cm^2 at 630 nm
  cell kill in clonogenic assay (in words): nearly complete cell kill in all conditions
[1]
  % Cell Kill: 100%
  Clonogenic Results (colonies): 0
  Clonogenic Results, Averaged numbers: 0.00
[2]
  % Cell Kill: 100%
  Clonogenic Results (colonies): 0
  Clonogenic Results, Averaged numbers: 0.00
[3]
  % Cell Kill: 100%
  Clonogenic Results (colonies): 0
  Clonogenic Results, Averaged numbers: 0.00
[4]
  % Cell Kill: 100%
  Clonogenic Results (colonies): 0
  Clonogenic Results, Averaged numbers: 0.00
[5]
  % Cell Kill: 100%
  Clonogenic Results (colonies): 0
  Clonogenic Results, Averaged numbers: 0
[6]
  % Cell Kill: 100%
  Clonogenic Results (colonies): 0
  Clonogenic Results, Averaged numbers: 0
[7]
  % Cell Kill: 100%
  Clonogenic Results (colonies): 0
  Clonogenic Results, Averaged numbers: 0
[8]
  % Cell Kill: 99.67%
  Clonogenic Results, Averaged numbers: 0.33
[9]
  % Cell Kill: 99.85%
  Clonogenic Results, Averaged numbers: 0.33
[10]
  % Cell Kill: 100.00%
  Clonogenic Results (colonies): 0
  Clonogenic Results, Averaged numbers: 0.00
[11]
  % Cell Kill: 99.85%
  Clonogenic Results, Averaged numbers: 0.33
[12]
  % Cell Kill: 100%
  Clonogenic Results (colonies): 0
  Clonogenic Results, Averaged numbers: 0
[13]
  % Cell Kill: 100%
  Clonogenic Results (colonies): 0
  Clonogenic Results, Averaged numbers: 0
[14]
  % Cell Kill: 100%
  Clonogenic Results (colonies): 0
  Clonogenic Results, Averaged numbers: 0
[15]
  % Cell Kill: 99.70%
  Clonogenic Results, Averaged numbers: 0.67
